Experimental data published in ChEMBL document CHEMBL1147867, “Identification of antitumour activity of novel derivatives of 8-aryl-2,6,7,8-tetrahydroimidazo[2,1-c][1,2,4]triazine-3,4-dione and 8-aryl-4-imino-2,3,7,8-tetrahydroimidazo[2,1-c][1,2,4]triazin-3(6H)-one” (Bioorg Med Chem, 2007).
≈ marks a conversion by molar mass, not a printed value.

Legend:
[1] = Cytotoxicity against Vero cells at 10 ug/ml after 72 hrs; type: cell-based; details: chlorocebus sabaeus, read-out: Inhibition
[2] = test system: Staphylococcus aureus; assay: Antibacterial activity against Staphylococcus aureus after 24 hrs by microdilution broth method; type: functional
[3] = test system: Staphylococcus epidermidis; assay: Antibacterial activity against Staphylococcus epidermidis after 24 hrs by microdilution broth method; type: functional
[4] = Cytotoxicity against human LS180 cells at 10 ug/ml after 72 hrs; type: functional; details: LS180, 72 h
[5] = Cytotoxicity against Vero cells at 50 ug/ml after 72 hrs; type: cell-based; details: chlorocebus sabaeus, read-out: Inhibition
[6] = test system: T47D; assay: Cytotoxicity against human T47D cells at 10 ug/ml after 72 hrs; type: functional
[7] = Cytotoxicity against human LS180 cells at 50 ug/ml after 72 hrs; type: functional; details: LS180, 72 h
[8] = test system: T47D; assay: Cytotoxicity against human T47D cells at 50 ug/ml after 72 hrs; type: functional
[9] = test system: Streptococcus pyogenes; assay: Antibacterial activity against Streptococcus pyogenes after 24 hrs by microdilution broth method; type: functional
[10] = test system: Escherichia coli; assay: Antibacterial activity against Escherichia coli after 24 hrs by microdilution broth method; type: functional
[11] = test system: HeLa; assay: Cytotoxicity against human HeLa cells at 10 ug/ml after 72 hrs; type: functional
[12] = test system: HeLa; assay: Cytotoxicity against human HeLa cells at 50 ug/ml after 72 hrs; type: functional
[13] = test system: RPMI-8226; assay: Cell viability in human RPMI 8226 ECACC 87012702 cancer cells at 50 uM after 24 hrs by MTT assay; type: functional
[14] = test system: A549; assay: Anticancer activity against human A549 cells at 50 ug/ml after 72 hrs; type: functional; details: A549, 72 h
[15] = test system: RPMI-8226; assay: Cell viability in human RPMI 8226 ECACC 87012702 cancer cells at 100 uM after 24 hrs by MTT assay; type: functional
[16] = test system: A549; assay: Anticancer activity against human A549 cells at 10 ug/ml after 72 hrs; type: functional; details: A549, 72 h
[17] = Cell viability in HSF cells at 50 uM after 24 hrs by MTT assay; type: cell-based, Fibroblast; details: human, read-out: Activity
[18] = Cell viability in HSF cells at 100 uM after 24 hrs by MTT assay; type: functional, Homo sapiens, Fibroblast
[19] = Cell viability in HSF cells at 1 uM after 24 hrs by MTT assay; type: cell-based, Fibroblast; details: human, read-out: Activity
[20] = test system: RPMI-8226; assay: Cell viability in human RPMI 8226 ECACC 87012702 cancer cells at 1 uM after 24 hrs by MTT assay; type: functional
[21] = Acute toxicity in mouse; type: organism-based; details: in vivo

Row | Structure (SMILES) | cytotoxicity at 72 h, 10 ug/ml [1] | inhibition at 10 µg/mL [4] | cytotoxicity at 72 h, 50 ug/ml [5] | inhibition at 10 µg/mL [6] | inhibition at 50 µg/mL [7] | inhibition at 50 µg/mL [8] | inhibition at 10 µg/mL [11] | inhibition at 50 µg/mL [12] | Activity [13] | inhibition at 50 µg/mL [14] | Activity [15] | inhibition at 10 µg/mL [16] | viability at 24 h, 50 µM [17] | Activity [18] | viability at 24 h, 1 µM [19] | Activity [20] | other results
1 | Cc1cccc(N2CCN/C2=N\N)c1C | 16% | 6% | 14% | 21% | 0% | 25% | 8% | 0% |  |  |  |  |  |  |  |  | MIC [2]: 37.6 µM (≈ 7.68 µg/mL); MIC [3]: 18.8 µM (≈ 3.84 µg/mL); MIC [9]: 75.2 µM (≈ 15.4 µg/mL); MIC [10]: 18.8 µM (≈ 3.84 µg/mL)
2 | Cc1ccc(N2CCN/C2=N\N)cc1 | 0% | 11% | 9% | 12% | 15% | 17% | 3% | 0% |  |  |  |  |  |  |  |  | 
3 | N=c1c(=O)[nH]nc2n1CCN2c1ccc(Cl)cc1 | 0% | 0% | 0% | 16% | 5% | 27% | 8% | 0% | 76% | 27% | 64% | 25% | 84% | 74% | 98% | 94% | 
4 | Cc1ccccc1N1CCN/C1=N\N |  |  |  |  |  |  |  |  |  |  |  |  |  |  |  |  | MIC [2]: 39.3 µM (≈ 7.48 µg/mL); MIC [3]: 31.4 µM (≈ 5.97 µg/mL); MIC [9]: 78.6 µM (≈ 15 µg/mL); MIC [10]: 15.7 µM (≈ 2.99 µg/mL)
5 | Cc1ccc(N2CCn3c2n[nH]c(=O)c3=O)cc1 | 0% | 2% | 0% | 14% | 0% | 22% | 0% | 11% | 91% | 31% | 83% | 20% | 97% | 92% | 93% | 95% | LD50 [21]: 1800 mg/kg
6 | CC1(C)S[C@@H]2[C@H](NC(=O)[C@H](N)c3ccccc3)C(=O)N2[C@H]1C(=O)O [AMPICILLIN] |  |  |  |  |  |  |  |  |  |  |  |  |  |  |  |  | MIC [2]: 35.8 µM (≈ 12.5 µg/mL); MIC [3]: 71.5 µM (≈ 25 µg/mL); MIC [10]: 35.8 µM (≈ 12.5 µg/mL)
7 | N=c1c(=O)[nH]nc2n1CCN2c1cccc(Cl)c1 | 0% | 0% | 0% | 3% | 1% | 31% | 6% | 2% |  | 50% |  | 36% |  |  |  |  | 
8 | N=c1c(=O)[nH]nc2n1CCN2c1ccccc1 | 26% | 0% | 30% | 0% | 1% | 3% | 30% | 34% | 103% | 38% | 106% | 7% | 103% | 106% | 101% | 95% | 
9 | N/N=C1\NCCN1c1cccc(Cl)c1 | 0% | 8% | 10% | 5% | 0% | 0% | 0% | 0% |  |  |  |  |  |  |  |  | 
10 | N=c1c(=O)[nH]nc2n1CCN2c1ccccc1Cl | 0% | 6% | 2% | 0% | 2% | 0% | 0% | 0% | 94% | 16% | 93% | 6% | 104% | 101% | 100% | 93% | 
11 | Cc1ccccc1N1CCn2c1n[nH]c(=O)c2=O | 0% | 0% | 0% | 0% | 0% | 0% | 0% | 0% | 121% | 29% | 133% | 24% | 110% | 108% | 104% | 101% | 
12 | Cc1cccc(N2CCn3c2n[nH]c(=O)c3=O)c1C | 18% | 0% | 18% | 21% | 0% | 22% | 0% | 0% |  | 0% |  | 0% |  |  |  |  | 
